Data published in patent publication US20110105408A1, “THERAPEUTIC PEPTIDES” (INTER-K PTY LIMITED, priority 2008, published 2011).
“Also recorded” adds a separate entry of the source.

Tests used:
[1] = system: HT29 human colorectal adenocarcinoma tumour; assay: Inhibition of HT29 tumour growth in a mouse model, intra-tumoural injection; type: in vivo, Mouse (Mus musculus) BALB/c nu/nu; conditions: for Tumour volume, Delta avg: change in volume from day 0
Description: HT29 human colorectal adenocarcinoma cells were cultured in RPMI 1640 cell culture medium supplemented with 10% v/v FCS and 50 IU/mL penicillin-streptomycin. The cells were harvested by trypsinisation, washed twice in HBSS and counted. The cells were then resuspended in HBSS to a final concentration of 2×10^7 cells/mL.
• Species: Mouse (Mus musculus) • Strain: BALB/c nu/nu • Source: University of Adelaide (Waite Campus, Urrbrae, SA, Australia) • Total number of animals in study: 20 females • Number of study groups: 2 (1 test, 1 control) • Number of mice per group: 10 • Body weight range: 20.61-25.27 g at onset of treatment (mean 22.27 g) • Age range: 10-12 weeks at onset of treatment.
Prior to inoculation the skin on the injection site (dorsal right flank) was swabbed with alcohol. The needle was introduced through the skin into the subcutaneous space just below the animal's right shoulder, and 100 μL of cells (2×10^6 cells) were discharged. The treatment of mice began nine days after HT29 cell inoculation, the average tumour volume was 68 mm^3 (average variability of 6.1%).
Body weight and tumour dimensions (length and diameter) were measured for all animals on the first day of treatment (day 0) and then three times per week, including the termination day of the study (Day 24).
Mice were randomized, based on body weight, into two groups of ten mice on Day 0 of the study. The peptide dendrimer IK248B presenting 10 monomer units of the peptide RSKAKNPLYR (SEQ ID No. 6) (see Example 8) was used in this study. The vehicle control (phosphate buffered saline (PBS)) and IK248B dendrimer (20 mg/kg) were each administered by intra-tumoural injection once daily for five consecutive days, beginning on Day 0.
The vehicle control and IK248B dendrimer were administered at a dosing volume of 4.762 mL/kg (100 μL) based on a 21 g mouse. Each animal's body weight was measured immediately prior to dosing. The volume of dosing solution administered to each mouse was calculated and adjusted based on individual body weight.
Tumours were excised from all mice post mortem and weighed. Tumour volume was calculated using the equation:
V(mm^3)=length×diameter^2×p/6
ΔT/ΔC(%) was calculated using the following equation:
ΔT/ΔC(%)=(ΔvolumeTreatment/ΔVolumeControl)×100
where Δ=change in volume from day 0 to the final measurement day or nominated day of interest.
All statistical calculations were performed using SigmaStat 3.0 (SPSS Australasia, North Sydney, NSW, Australia). A two-sample t-test was used to determine the significance in body weight change within a treatment group between day 0 and day 4, and between day 0 and the termination day of the study. A One-Way Analysis of Variance (ANOVA) was performed on tumour volumes measured in all mice at the end of the study. Where significant differences were found in the data, the All Pairwise Multiple Comparison Procedures (Holm-Sidak Method) were performed. A two-sample t-test was used to show a significant difference between the tumour weight data for the vehicle control and Dend 10 10(4) treatment groups. A p value of less than 0.05 was considered significant.

HT29 colon cancer cells = assay: Cell proliferation (MTT) assay, HT29 cells; type: cell-based, human
Description: Single cell suspensions of viable trypsinised cells were seeded into 96-well tissue culture plates at a density of 2×10^3 cells per well in a volume of 100 μl of a suitable culture media with foetal calf serum (FCS) (e.g., Dulbecco's Modified Eagles Medium (DMEM), with 10% v/v FCS, glutamine, Hepes, and antibiotics). A set of triplicate wells was prepared for each concentration of the peptide dendrimer being tested. Additional sample wells containing untreated cells or media alone were set up in each treatment plate and processed in parallel as reference controls. A zero-time plate of untreated cells and media-alone wells was simultaneously prepared and an MTT assay carried out on this plate at the time of test peptide dendrimer addition to treatment plates. All plates were cultured for 24 hours before addition of the test dendrimer. To prepare the MTT solution 100 mg of MTT (3-(4,5-dimethylthiazolyl-2)-2,5-diphenyltetrazolium bromide) (Cat #. M-128, Sigma, St Louis Mo.), is mixed with 20 ml of PBS at pH 7.4. The resulting solution is filter sterilized (0.2 μM syringe filter) and stored at 4° C. protected from light until use. MTT substrate is cleaved in growing cells to yield a water insoluble salt. After solubilisation of the salt crystals, a coloured product is produced the measurement of which allows quantitation of the proliferative activity of the cultured cells.
Appropriate concentrations of the test dendrimer were prepared by dilution of freshly prepared sterile 1 mM stock solutions into cell culture media to give a final well volume of 200 μl containing 10% v/v FCS. The zero-plate was processed by addition of MTT at this time. Cell culture was continued for a further 24 or 48 hours before addition of 20 μl of MTT in PBS (5 mg/ml, 0.2 um filter sterilised). The MTT cell proliferation assay measures cell proliferation rate and, in instances where cell viability is compromised, the assay indicates a comparative reduction in cell viability. After a 3 hour incubation in the presence of MTT (5% CO2 in air at 37° C.), plates were centifuged at 450 g for 5 minutes, supernatant removed by gentle suction and precipitated tetrazolium salt resuspended into 150 μl DMSO:glycine (0.1 M glycine, 0.1 M NaCl pH 10.5) (6:1 v/v) solution. Plates were gently vortexed to complete solubilisation of crystalline material and absorbance was read at 540-550 nm using a microplate reader. Sample data were processed to determine the comparative growth of treated samples relative to untreated controls.
HT29 cells were cultured for 48 hours in the presence of selected dendrimers and proliferation of the cells was assessed by MTT assay essentially as described in Example 1.2. The results were calculated as percentage proliferation of control cells (not treated with dendrimer).

In the case of CC(C)C[C@H](NC(=O)[C@@H]1CCCN1C(=O)[C@H](CC(N)=O)NC(=O)[C@H](CCCCN)NC(=O)[C@H](C)NC(=O)[C@H](CCCCN)NC(=O)[C@H](CO)NC(=O)[C@@H](N)CCCNC(=N)N)C(=O)N[C@@H](Cc1ccc(O)cc1)C(=O)N[C@@H](CCCNC(=N)N)C(=O)NCCCC[C@H](NC(=O)[C@H](CCCCNC(=O)[C@H](CCCCNC(=O)[C@H](CCCNC(=N)N)NC(=O)[C@H](Cc1ccc(O)cc1)NC(=O)[C@H](CC(C)C)NC(=O)[C@@H]1CCCN1C(=O)[C@H](CC(N)=O)NC(=O)[C@H](CCCCN)NC(=O)[C@H](C)NC(=O)[C@H](CCCCN)NC(=O)[C@H](CO)NC(=O)[C@@H](N)CCCNC(=N)N)NC(=O)[C@H](CCCNC(=N)N)NC(=O)[C@H](Cc1ccc(O)cc1)NC(=O)[C@H](CC(C)C)NC(=O)[C@@H]1CCCN1C(=O)[C@H](CC(N)=O)NC(=O)[C@H](CCCCN)NC(=O)[C@H](C)NC(=O)[C@H](CCCCN)NC(=O)[C@H](CO)NC(=O)[C@@H](N)CCCNC(=N)N)NC(=O)[C@H](CCCCNC(=O)[C@H](CCCNC(=N)N)NC(=O)[C@H](Cc1ccc(O)cc1)NC(=O)[C@H](CC(C)C)NC(=O)[C@@H]1CCCN1C(=O)[C@H](CC(N)=O)NC(=O)[C@H](CCCCN)NC(=O)[C@H](C)NC(=O)[C@H](CCCCN)NC(=O)[C@H](CO)NC(=O)[C@@H](N)CCCNC(=N)N)NC(=O)[C@H](CCCNC(=N)N)NC(=O)[C@H](Cc1ccc(O)cc1)NC(=O)[C@H](CC(C)C)NC(=O)[C@@H]1CCCN1C(=O)[C@H](CC(N)=O)NC(=O)[C@H](CCCCN)NC(=O)[C@H](C)NC(=O)[C@H](CCCCN)NC(=O)[C@H](CO)NC(=O)[C@@H](N)CCCNC(=N)N)C(=O)NCCCC[C@H](NC(=O)[C@H](CCCCNC(=O)[C@H](CCCNC(=N)N)NC(=O)[C@H](Cc1ccc(O)cc1)NC(=O)[C@H](CC(C)C)NC(=O)[C@@H]1CCCN1C(=O)[C@H](CC(N)=O)NC(=O)[C@H](CCCCN)NC(=O)[C@H](C)NC(=O)[C@H](CCCCN)NC(=O)[C@H](CO)NC(=O)[C@@H](N)CCCNC(=N)N)NC(=O)[C@H](CCCCNC(=O)[C@H](CCCCNC(=O)[C@H](CCCNC(=N)N)NC(=O)[C@H](Cc1ccc(O)cc1)NC(=O)[C@H](CC(C)C)NC(=O)[C@@H]1CCCN1C(=O)[C@H](CC(N)=O)NC(=O)[C@H](CCCCN)NC(=O)[C@H](C)NC(=O)[C@H](CCCCN)NC(=O)[C@H](CO)NC(=O)[C@@H](N)CCCNC(=N)N)NC(=O)[C@H](CCCNC(=N)N)NC(=O)[C@H](Cc1ccc(O)cc1)NC(=O)[C@H](CC(C)C)NC(=O)[C@@H]1CCCN1C(=O)[C@H](CC(N)=O)NC(=O)[C@H](CCCCN)NC(=O)[C@H](C)NC(=O)[C@H](CCCCN)NC(=O)[C@H](CO)NC(=O)[C@@H](N)CCCNC(=N)N)NC(=O)[C@H](CCCCNC(=O)[C@H](CCCNC(=N)N)NC(=O)[C@H](Cc1ccc(O)cc1)NC(=O)[C@H](CC(C)C)NC(=O)[C@@H]1CCCN1C(=O)[C@H](CC(N)=O)NC(=O)[C@H](CCCCN)NC(=O)[C@H](C)NC(=O)[C@H](CCCCN)NC(=O)[C@H](CO)NC(=O)[C@@H](N)CCCNC(=N)N)NC(=O)[C@H](CCCNC(=N)N)NC(=O)[C@H](Cc1ccc(O)cc1)NC(=O)[C@H](CC(C)C)NC(=O)[C@@H]1CCCN1C(=O)[C@H](CC(N)=O)NC(=O)[C@H](CCCCN)NC(=O)[C@H](C)NC(=O)[C@H](CCCCN)NC(=O)[C@H](CO)NC(=O)[C@@H](N)CCCNC(=N)N)C(=O)NCCC(N)=O [IK248B], the “tumour growth compared to vehicle only control” value ([1]; 20 mg/kg intra-tumoural once daily for five days) is reported as “markedly inhibited”, the “average tumour weight at the end of the study” value ([1]; 20 mg/kg intra-tumoural once daily for five days, Day 24, control 0.962 g) is reported as 0.437 g and the “dT/dC [%]” value ([1]; Day 0) is reported as 100.0%. For the same compound, the “Tumour volume, Delta avg” value ([1]; Day 0) was 0.0 mm^3, the “Tumour volume, Average” value ([1]; Day 0 post-initial treatment) was 68.0 mm^3 and the “dT/dC [%]” value ([1]; Day 2) was 134.3%. For the same compound, the “Tumour volume, Delta avg” value ([1]; Day 2) was 68.6 mm^3, the “Tumour volume, Average” value ([1]; Day 2 post-initial treatment) was 136.6 mm^3 and the “dT/dC [%]” value ([1]; Day 4) was 102.0%. The “Tumour volume, Delta avg” value ([1]; Day 4) was 144.0 mm^3, the “Tumour volume, Average” value ([1]; Day 4 post-initial treatment) was 211.9 mm^3 and the “dT/dC [%]” value ([1]; Day 7) was 68.1%. The “Tumour volume, Delta avg” value ([1]; Day 7) was 180.6 mm^3, the “Tumour volume, Average” value ([1]; Day 7 post-initial treatment) was 248.6 mm^3 and the “dT/dC [%]” value ([1]; Day 11) was 58.0%. The “Tumour volume, Delta avg” value ([1]; Day 11) was 232.9 mm^3, the “Tumour volume, Average” value ([1]; Day 11 post-initial treatment) was 300.9 mm^3 and the “dT/dC [%]” value ([1]; Day 14) was 44.6%. For the same compound, the “Tumour volume, Delta avg” value ([1]; Day 14) was 255.9 mm^3, the “Tumour volume, Average” value ([1]; Day 14 post-initial treatment) was 323.9 mm^3 and the “dT/dC [%]” value ([1]; Day 16) was 45.2%. The “Tumour volume, Delta avg” value ([1]; Day 16) was 323.1 mm^3, the “Tumour volume, Average” value ([1]; Day 16 post-initial treatment) was 391.0 mm^3 and the “dT/dC [%]” value ([1]; Day 18) was 47.1%. For the same compound, the “Tumour volume, Delta avg” value ([1]; Day 18) was 408.9 mm^3, the “Tumour volume, Average” value ([1]; Day 18 post-initial treatment) was 476.9 mm^3 and the “dT/dC [%]” value ([1]; Day 21) was 55.7%. The “Tumour volume, Delta avg” value ([1]; Day 21) was 598.7 mm^3, the “Tumour volume, Average” value ([1]; Day 21 post-initial treatment) was 601.5 mm^3 and the “dT/dC [%]” value ([1]; Day 24) was 54.5%. The “Tumour volume, Delta avg” value ([1]; Day 24) was 710.4 mm^3, the “Tumour volume, Average” value ([1]; Day 24 post-initial treatment) was 702.1 mm^3 and the “inhibition of proliferation of HT29 cells (MTT)” value (HT29 colon cancer cells; 48 hours culture with dendrimer) was “proliferation of the cells was inhibited; also recorded: more effective than dendrimer IK248”. The “dendrimer concentration required for total kill” value (HT29 colon cancer cells; HT29 cells, 48 hours, MTT) was 10 µM.
